Assay results reported in US11584707B2, “Non-coordinating anion type activators containing cation having aryldiamine groups and uses thereof” (ExxonMobil Chemical Patents Inc., priority 2019, dated 2023).
“And” between values parts separate entries of the source, which are not always exact repeats. Equal values may be shown once.

Assays:
[1] = Ethylene homopolymerization (RUN B) in parallel pressure reactor; details: catalyst = 20 nmol, activator = 22 nmol, isohexane 5 mL, tri(n-octyl)aluminum = 500 nmol, T = 100° C., P = 100 PSI
Method: (§1) Unless stated otherwise, solutions of the metal complexes and activators were prepared in a drybox using toluene or methylcyclohexane. Concentrations were typically 0.2 mmol/L. Tri-n-octylaluminum (TNOAL, neat, AkzoNobel) was typically used as a scavenger. Concentration of the TNOAL solution in toluene was from 0.5 to 2 mmol/L.
(§2) Polymerizations were carried out in a parallel pressure reactor, as generally described in U.S. Pat. Nos. 6,306,658; 6,455,316; 6,489,168; WO 2000/009255; and Murphy, V. et al. (2003) “A Fully Integrated High-Throughput Screening Methodology for the Discovery of New Polyolefin Catalysts: Discovery of a New Class of High Temperature Single-Site Group (IV) Copolymerization Catalysts,” J. Am. Chem. Soc., v.125, pp. 4306-4317, each of which is incorporated by reference. The experiments were conducted in an inert atmosphere (N2) drybox using autoclaves equipped with an external heater for temperature control, glass inserts (internal volume of reactor=23.5 mL for C2 and C2/C8; 22.5 mL for C3 runs), septum inlets, regulated supply of nitrogen, ethylene and propylene, and equipped with disposable PEEK mechanical stirrers (800 RPM). The autoclaves were prepared by purging with dry nitrogen at 110° C. or 115° C. for 5 hours and then at 25° C. for 5 hours. Although the specific quantities, temperatures, solvents, reactants, reactant ratios, pressures, and other variables are frequently changed from one polymerization run to the next, the following describes a typical polymerization performed in a parallel pressure reactor.
(§3) RUN B: Ethylene homopolymerization (PE). A series of ethylene polymerizations were performed in the parallel pressure reactor according to the procedure described above. In these studies rac-dimethylsilyl-bis(indenyl)hafnium dimethyl (MCN-1) was used along with ammonium borate activators. […] When sufficient polymer yield was attained (e.g., at least ˜10 mg), the polyethylene product was analyzed by Rapid GPC, described below.

[2] = Ethylene-octene copolymerization (RUN A) in parallel pressure reactor; details: catalyst = 20 nmol, activator = 22 nmol, 1-octene = 100 μL, isohexane 5 mL, tri(n-octyl)aluminum = 500 nmol, T = 100° C., P = 100 PSI
Method: as §1, §2
as §3, with “RUN A: Ethylene-octene copolymerization (EO).” for “RUN B: Ethylene homopolymerization (PE).”, “of ethylene-octene” for “of ethylene”

| Compound | activity [1] | activity [2] |
| --- | --- | --- |
| CCCCCCCCCCCCCCCCCCN(C)c1cccc2c([NH+](C)CCCCCCCCCCCCCCCCCC)cccc12.Fc1c(F)c(F)c2c(F)c([B-](c3c(F)c(F)c4c(F)c(F)c(F)c(F)c4c3F)(c3c(F)c(F)c4c(F)c(F)c(F)c(F)c4c3F)c3c(F)c(F)c4c(F)c(F)c(F)c(F)c4c3F)c(F)c(F)c2c1F [DANH-BF28] | 388 kg/mmol/h and 364 kg/mmol/h and 478 kg/mmol/h and 416 kg/mmol/h | 466 kg/mmol/h and 445 kg/mmol/h and 421 kg/mmol/h and 397 kg/mmol/h |
| CCCCCCCCCCCCCCCCCCN(C)c1cccc2c([NH+](C)CCCCCCCCCCCCCCCCCC)cccc12.Fc1c(F)c(F)c([B-](c2c(F)c(F)c(F)c(F)c2F)(c2c(F)c(F)c(F)c(F)c2F)c2c(F)c(F)c(F)c(F)c2F)c(F)c1F [DANH-BF20] | 406 kg/mmol/h and 410 kg/mmol/h and 442 kg/mmol/h and 454 kg/mmol/h | 545 kg/mmol/h and 661 kg/mmol/h and 448 kg/mmol/h and 492 kg/mmol/h |
| N,N-Dimethylanilinium tetrakis(pentafluorophenyl)borate [DMAH-BF20, reference compound] | 366 kg/mmol/h and 380 kg/mmol/h and 516 kg/mmol/h and 454 kg/mmol/h | 526 kg/mmol/h and 359 kg/mmol/h and 668 kg/mmol/h and 689 kg/mmol/h |
